Literature values in US20160074320A1, “PHARMACEUTICAL COMPOSTIONS COMPRISING KISSPEPTIN OR DERIVATIVES THEREOF” (OURO FINO SAÚDE ANIMAL LTDA, priority 2013, published 2016).
Ends that are not written are not given here.

Key:
sheep [1] = conditions: sheep in anestrus, low and sustained (30 to 48 h) doses IV
sheep [2] = conditions: Kp-10 applied 30 h after removal of intra-vaginal progesterone device (CIDR)

Kp-10: 10 amino acid fragment cleaved from kisspeptin, the 145 amino acid protein encoded by Kiss-1 gene (YNWNSFGLRF; ends and bridges not checked; UniProt Q15726 112-121, looked up, fragment)
ovulation, share of animals (sheep [1]): more than 80%
hormone release (prepubertal heifers; IV administration): induces the release of LH and growth hormone (GH)
LH pulses (Redmond and collaborators) (prepubertal heifers; IV injections): increase of frequency and amplitude of the pulses of LH
peak of LH, time after removal of CIDR (sheep [2]): ~32 h
